Data: patent US10550105B2 (Ribon Therapeutics Inc., priority 2018, dated 2020)

The molecules below were run against PARP7 (Homo sapiens (Human), UniProt Q7Z3E1) (assay: Enzymatic assay for inhibition of PARP7: TR-FRET displacement of biotinylated Probe A from the TIPARP active site). Settings: Table A-1.
Type: binding
Method in brief: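 Displacement of biotinylated Probe A from TIPARP was measured as the 665/615 nm time-resolved FRET ratio (excitation 320 nm, 90 μs delay) after a further 30 min at 25 °C. Inhibition across compound concentrations was fitted by dose-response regression, with the Hill slope free or fixed at 1 (3-parameter fit).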

Sequence of PARP7 (Q7Z3E1 whole entry): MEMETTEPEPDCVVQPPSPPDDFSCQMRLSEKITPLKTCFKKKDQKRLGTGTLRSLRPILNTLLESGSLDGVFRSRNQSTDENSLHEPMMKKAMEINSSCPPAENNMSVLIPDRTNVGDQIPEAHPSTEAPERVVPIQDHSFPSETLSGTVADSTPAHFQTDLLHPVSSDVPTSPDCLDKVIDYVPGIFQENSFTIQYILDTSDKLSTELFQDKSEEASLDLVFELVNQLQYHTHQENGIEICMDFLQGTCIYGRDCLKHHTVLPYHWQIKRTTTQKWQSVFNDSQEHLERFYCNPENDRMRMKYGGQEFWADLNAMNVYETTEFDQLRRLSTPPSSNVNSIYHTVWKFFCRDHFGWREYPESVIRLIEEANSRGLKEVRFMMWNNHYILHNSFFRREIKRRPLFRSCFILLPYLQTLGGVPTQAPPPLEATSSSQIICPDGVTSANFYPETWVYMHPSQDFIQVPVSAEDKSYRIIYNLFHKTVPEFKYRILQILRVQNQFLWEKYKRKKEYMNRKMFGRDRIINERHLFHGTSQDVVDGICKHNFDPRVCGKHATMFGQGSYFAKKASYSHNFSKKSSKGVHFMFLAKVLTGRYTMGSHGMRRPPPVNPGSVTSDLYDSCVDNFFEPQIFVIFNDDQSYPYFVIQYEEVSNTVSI

IC50	Compound
< 100 nM	O=C(c1cncc(OC[C@@H]2c3ccccc3CN2c2cn[nH]c(=O)c2C(F)(F)F)c1)N1CCN(c2ccc(F)cn2)CC1 [Example 386, (5)-5-(1-(((5-(4-(5-Fluoropyridin-2-yl)piperazine-1-carbonyl)pyridin-3-yl)oxy)methyl)isoindolin-2-yl)-4-(trifluoromethyl)pyridazin-3(2H)-one]
100 to 1000 nM	N#Cc1ccc(N2CCN(C(=O)c3cc(OC[C@H]4c5ccccc5CN4c4cn[nH]c(=O)c4C(F)(F)F)ccn3)CC2)nc1 [Example 356, (R)-6-(4-(4-((2-(6-Oxo-5-(trifluoromethyl)-1,6-dihydropyridazin-4-yl)isoindolin-1-yl)methoxy)picolinoyl)piperazin-1-yl)nicotinonitrile]
100 to 1000 nM	CN(C)C(=O)c1cccc2c1CN(c1cn[nH]c(=O)c1C(F)(F)F)C2 [Example 277, N,N-Dimethyl-2-(6-oxo-5-(trifluoromethyl)-1,6-dihydropyridazin-4-yl)isoindoline-4-carboxamide]
< 100 nM	O=C(c1cncc(OCC2c3ccccc3CN2c2cn[nH]c(=O)c2C(F)(F)F)c1)N1CCN(c2ccc(F)cn2)CC1 (stereo not drawn) [Example 375, 5-(1-(((5-(4-(5-Fluoropyridin-2-yl)piperazine-1-carbonyl)pyridin-3-yl)oxy)methyl)isoindolin-2-yl)-4-(trifluoromethyl)pyridazin-3(2H)-one]
< 100 nM	C[C@@H](COCCC(=O)N1CCN(c2ncccc2C(F)(F)F)CC1)Nc1cn[nH]c(=O)c1C(F)(F)F [Example 677, (S)-5-((1-(3-Oxo-3-(4-(3-(trifluoromethyl)pyridin-2-yl)piperazin-1-yl)propoxy)propan-2-yl)amino)-4-(trifluoromethyl)pyridazin-3(2H)-one]
< 100 nM	N#Cc1ccc(N2CCN(C(=O)c3cccc(OCC4CCN(c5cn[nH]c(=O)c5C(F)(F)F)C4)c3)CC2)nc1 (stereo not drawn) [Example 469, 6-(4-(3-((1-(6-Oxo-5-(trifluoromethyl)-1,6-dihydropyridazin-4-yl)pyrrolidin-3-yl)methoxy)benzoyl)piperazin-1-yl)nicotinonitrile]
< 100 nM	C[C@@H](CC(=O)N1CCN(c2ccc(C#N)cn2)CC1)OCCNc1cn[nH]c(=O)c1C(F)(F)F [Example 528A]
< 100 nM	O=c1[nH]ncc(N2Cc3cccc(OCC4CCCOC4)c3C2)c1C(F)(F)F (stereo not drawn) [Example 199, 5-(4-((Tetrahydro-2H-pyran-3-yl)methoxy)isoindolin-2-yl)-4-(trifluoromethyl)pyridazin-3(2H)-one]
< 100 nM	N#Cc1ccc(N2CCN(C(=O)c3ccc(OCCc4cccc5c4CN(c4cn[nH]c(=O)c4C(F)(F)F)C5)cc3)CC2)nc1 [Example 402, 6-(4-(4-(2-(2-(6-Oxo-5-(trifluoromethyl)-1,6-dihydropyridazin-4-yl)isoindolin-4-yl)ethoxy)benzoyl)piperazin-1-yl)nicotinonitrile]
< 100 nM	COC[C@@H](COCCC(=O)N1CCN(c2cnc(Cl)cn2)CC1)Nc1cn[nH]c(=O)c1C(F)(F)F [Example 678, (S)-5-((1-(3-(4-(5-Chloropyrazin-2-yl)piperazin-1-yl)-3-oxopropoxy)-3-methoxypropan-2-yl)amino)-4-(trifluoromethyl)pyridazin-3(2H)-one]
< 100 nM	O=c1[nH]ncc(N2Cc3ccnc(OCc4cccnc4)c3C2)c1C(F)(F)F [Example 15, 5-[4-(pyridin-3-ylmethoxy)-1H,2H,3H-pyrrolo[3,4-c]pyridin-2-yl]-4-(trifluoromethyl)-2,3-dihydropyridazin-3-one]
< 100 nM	C[C@@H](CSCCC(=O)N1CCN(c2ncc(C(F)(F)F)cn2)CC1)Nc1cn[nH]c(=O)c1C(F)(F)F [Example 702, (S)-5-((1-((3-Oxo-3-(4-(5-(trifluoromethyl)pyrimidin-2-yl)piperazin-1-yl)propyl)thio)propan-2-yl)amino)-4-(trifluoromethyl)pyridazin-3(2H)-one]
< 100 nM	N#Cc1cnc(N2CCN(C(=O)c3cncc(OC[C@@H]4CCCN4c4cn[nH]c(=O)c4C(F)(F)F)c3)CC2)nc1 [Example 65, 2-[4-[(5-[[(2S)-1-[6-oxo-5-(trifluoromethyl)-1,6-dihydropyridazin-4-yl]pyrrolidin-2-yl]methoxy]pyridin-3-yl)carbonyl]piperazin-1-yl]pyrimidine-5-carbonitrile]
< 100 nM	CC(C)Oc1cccc2c1CN(c1cn[nH]c(=O)c1C(F)(F)F)C2 [Example 193, 5-(4-Isopropoxyisoindolin-2-yl)-4-(trifluoromethyl)pyridazin-3(2H)-one]
< 100 nM	N#Cc1ccc(N2CCN(C(=O)CCOCCNc3cn[nH]c(=O)c3C(F)(F)F)CC2)nc1 [Example 500, 6-[4-[3-(2-[[6-Oxo-5-(trifluoromethyl)-1,6-dihydropyridazin-4-yl]amino]ethoxy)propanoyl]piperazin-1-yl]pyridine-3-carbonitrile]
< 100 nM	COC[C@H](CO[C@H](C)CC(=O)N1CCN(c2ccc(C#N)cn2)CC1)Oc1cn[nH]c(=O)c1C(F)(F)F (single isomer, unassigned) [Example 571 Isomer A]
< 100 nM	N#Cc1ccc(N2CCN(C(=O)CNCCOc3cccc4c3CN(c3cn[nH]c(=O)c3C(F)(F)F)C4)CC2)nc1 [Example 491, 6-(4-((2-((2-(6-Oxo-5-(trifluoromethyl)-1,6-dihydropyridazin-4-yl)isoindolin-4-yl)oxy)ethyl)glycyl)piperazin-1-yl)nicotinonitrile]
100 to 1000 nM	COC[C@H](COCCC(=O)N1CCN(c2ncc(Cl)cn2)CC1)Oc1cn[nH]c(=O)c1C(F)(F)F (single isomer, unassigned)
< 100 nM	C[C@@H](COCCC(=O)N1CCN(c2ncc(Cl)cn2)CC1)Oc1cn[nH]c(=O)c1C(F)(F)F (single isomer, unassigned) [Example 543 Isomer A]
≥ 1000 nM	O=C(c1cncc(OC[C@H]2c3ccccc3CN2c2cn[nH]c(=O)c2C(F)(F)F)c1)N1CCN(c2ccc(F)cn2)CC1 [Example 387, (R)-5-(1-(((5-(4-(5-Fluoropyridin-2-yl)piperazine-1-carbonyl)pyridin-3-yl)oxy)methyl)isoindolin-2-yl)-4-(trifluoromethyl)pyridazin-3(2H)-one]
100 to 1000 nM	COC[C@@H](CO[C@H](C)CC(=O)N1CCN(c2ccc(C#N)cn2)CC1)Oc1cn[nH]c(=O)c1C(F)(F)F (single isomer, unassigned) [Example 571 Isomer D]
< 100 nM	O=C(CCOC[C@H](CO)Nc1cn[nH]c(=O)c1C(F)(F)F)N1CCN(c2ccc(Cl)cn2)CC1 [Example 633, (S)-5-((1-(3-(4-(5-Chloropyridin-2-yl)piperazin-1-yl)-3-oxopropoxy)-3-hydroxypropan-2-yl)amino)-4-(trifluoromethyl)pyridazin-3(2H)-one]

Compound	IC50
O=c1[nH]ncc(N2Cc3ccncc3C2)c1Cl [Example 152, 4-Chloro-5-(1,3-dihydro-2H-pyrrolo[3,4-c]pyridin-2-yl)pyridazin-3(2H)-one]	100 to 1000 nM
NCCOc1ccc2c(n1)CN(c1cn[nH]c(=O)c1C(F)(F)F)C2 [Example 317, 5-(2-(2-Aminoethoxy)-5,7-dihydro-6H-pyrrolo[3,4-b]pyridin-6-yl)-4-(trifluoromethyl)pyridazin-3(2H)-one formic acid]	100 to 1000 nM
